# Assay results as given in publication PMC7259601 (PLoS ONE, 2020).
# Where two headings read alike, the source gives them in different places.
# Columns and labels:
# [1] = target: T1, Human recombinant MAO-A (Homo sapiens, UniProt P21397); assay: MAO-A kynuramine fluorescent assay; assay type: biochemical; settings: S1 Table A
# T1 construct: purchased Sigma Aldrich M7316
# Protocol: Human recombinant monoamine oxidase proteins MAO-A and MAO-B (Sigma Aldrich, M7316 and M7441) were used to monitor the MAO enzymatic activities in a fluorescent assay using kynuramine as a substrate. […] Enzymatic reaction was initiated by the addition of specific KM Kynuramine and incubated 1 hr at 37 °C. The oxidative deamination of the substrate was stopped by adding NaOH 2N (v/v). The conversion of kynuramine to 4-hydroxyquinoline by MAOs was monitored by fluorescence (λex = 320 nm, λem = 360 nm) using a microplate reader.
# [2] = Mouse pharmacokinetics; assay type: in vivo, BALB/c mice; settings: for AUC(0-inf): read-out: Plasma AUCinf; for AUC(0-t): read-out: Plasma AUClast
# Protocol: Temperature and humidity were maintained at 22 ± 3 °C and 40-70 %, respectively and illumination was controlled to give a sequence of 12 hr light / dark cycle. The temperature and humidity were recorded by auto-controlled data logger system. All the animals were acclimatized to the experimental conditions for at least three days prior to dosing. All the animals were provided laboratory rodent diet (Vetcare India Pvt. Ltd, Bengaluru) except for overnight before treatment and 2 hr post dose. Reverse osmosis water treated with ultraviolet light was provided ad libitum. Blood samples were collected at 0, 0.05, 0.16, 0.5, 1, 2, 4, 8 & 24 hr for IV and for PO at 0, 0.25, 0.5, 1, 2, 4, 6, 8 and 24 hr post dosing. Each mouse was assigned to one of 3 subgroups and sampled at 3 timepoints. Animals were euthanized by using excess CO2 asphyxiation. The study was conducted at Sai Life Sciences Limited, Pune, India, in accordance with the guidelines of the Institutional Animal Ethics Committee (IAEC) and in accordance with the requirement of Committee for the Purpose of Control and Supervision of Experiments on Animals (CPCSEA), India. Prior approval was obtained before initiation of the study (IAEC Protocol No. IAEC/PRT/012-10; IAEC-CPCSEA).
# Plasma was harvested from the blood samples harvested in K2EDTA containing tubes by centrifugation at 4000 rpm for 10 min at 4 ± 2 °C and stored below -70 °C until bioanalysis. Brain tissue was homogenized with phosphate buffer saline (pH 7.4). Total homogenate volume was thrice the tissue weight. All samples were processed for analysis by precipitation using Imipramine as internal standard and analyzed with partially validated LC-MS/MS method. Pharmacokinetic parameters were calculated using the non-compartmental analysis tool of WinNonlin® Enterprise software (Pharsight Corp., USA; version 5.2).
# Compound levels from 3 samples per timepoint (for a given dose and route of administration), were used to calculated pharmacokinetic parameters using the non-compartmental analysis tool of WinNonlin® Enterprise software (Pharsight Corp., USA; version 5.2).
# [3] = system: KDM1A; assay: Ex vivo KDM1A target engagement in rat brain and PBMCs; parameters: species or system Sprague-Dawley rats
# Protocol: . Native protein extracts of cells or tissues were obtained in presence of 25 nM OG-881 chemoprobe according the protocol described in Mascaró et al..
# Luminescent ELISA: for quantification of total amount of KDM1A protein (TOTAL KDM1A), Luminunc Plates Maxisorp (NUNC; #436110) were coated with a monoclonal anti-KDM1A antibody (Abcam; #ab53269) at 2 µg/mL in PBS. For quantification of the fraction not bound to inhibitor (FREE KDM1A), plates were coated with streptavidin (Promega Biotech Ibérica; #Z7041) at 10 µg/mL in PBS. Coating was performed at 4°C O/N. Wells were washed 3 times in PBS, 0.1% Tween-20 and blocked with PBS-BSA 1% (Sigma; #A3059) for 2 hr. A KDM1A calibration curve of full length rKDM1A (Active Motif; #31334) diluted in PBS was included in each plate. Plates were then incubated 1 hr at RT and washed 5 times. […] Plates were centrifuged during 30 sec to 1,500 x g, shaken for 1 min at 100rpm and incubated inside the micropate reader (Infinite 200, Tecan) for 3 min at 25 °C. The relative luminescence units (RLU) readouts were acquired using a 1000 msec integration time and 150 msec settle time.
# . […] After raw data processing (robust elimination of outliers according to Grubbs criteria and subtraction of blank signal on technical replicates), the target engagement was calculated as […]
# [4] = system: SAMP8 mice; assay: Three Chamber Test (TCT); assay type: in vivo, mouse; settings: 0.96 mg/kg/day
# Protocol: Both male and female mice from the senescence accelerated strain SAMP8 and its control SAMR1 of different ages (see Table S3 for details) were used in these studies. Mice were breed in the animal facilities of the Pharmacy Faculty (University of Barcelona), maintained in a at 22 ± 2 °C controlled temperature in a 12 hr light / dark cycle (lights on at 8:00 am; 300 lux/0 lux) with ad libitum access to food (2018 TEKLAD, Harlan) and water. Male mice were housed individually (males) or in groups of 4-5 animals (females) in plastic colony boxes with a sawdust bedding material. […] SAMR1 mice treated with vehicle were included as a control. All drugs were administered via drinking water and diluted in vehicle. Drug concentration was calculated weekly in function of body weight and corrected in function of drinking water consumption. Cognitive function was evaluated by NORT, social behavior was evaluated by RI and anxiety and motor function were evaluated by EPM and OF. […]
# The test was performed in a Plexiglas transparent box with three identical consecutive chambers (15 x 15 x 20 cm). […] This habituation time was monitored to avoid animals showing preference for one of the chambers. […] The time spent in each chamber and the time of direct exploration of the novel mice was measured.
# Three Chamber Test (TCT): Mice were recorded for 5 min during habituation and an additional X min to run the test. […]
# [5] = male, mouse, plasma, BALB/c mice, intravenous 2 mg/kg
# [6] = male, mouse, plasma, BALB/c mice, oral 10 mg/kg
# T1 sequence (P21397 whole entry): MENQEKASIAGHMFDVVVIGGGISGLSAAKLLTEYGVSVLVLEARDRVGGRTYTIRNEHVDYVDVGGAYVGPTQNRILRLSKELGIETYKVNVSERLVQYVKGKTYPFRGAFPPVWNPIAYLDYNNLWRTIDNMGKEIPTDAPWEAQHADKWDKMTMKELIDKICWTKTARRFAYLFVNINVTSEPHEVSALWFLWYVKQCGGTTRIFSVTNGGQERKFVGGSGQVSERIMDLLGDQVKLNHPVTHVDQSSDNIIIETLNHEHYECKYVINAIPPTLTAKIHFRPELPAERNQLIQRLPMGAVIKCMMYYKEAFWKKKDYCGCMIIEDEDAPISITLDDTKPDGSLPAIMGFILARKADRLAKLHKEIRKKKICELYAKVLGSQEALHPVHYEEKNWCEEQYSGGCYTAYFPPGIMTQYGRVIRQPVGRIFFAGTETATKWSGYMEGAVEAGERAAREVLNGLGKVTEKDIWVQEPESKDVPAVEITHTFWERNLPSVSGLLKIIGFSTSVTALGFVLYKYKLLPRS
compound,measurement,setting,value
"Nc1nnc(CN[C@@H]2C[C@H]2c2ccc(OCc3ccccc3)cc2)o1 [ORY-2001, vafidemstat]",IC50,[1],5.47 ± 0.3 µM
same,Brain Cmax,"[2]; BALB/c mice, oral 10 mg/kg",5804 ng/g
same,Fpo,"[2]; BALB/c mice, oral 10 mg/kg",75%
same,AUC,"[2]; male, mouse, plasma, po, Balb/c mice, p.o. 10 mg/kg, read-out: area-under-the-curve (AUC) (converted)",17200 ng·h/mL
same,clearance,[2]; [5],6.8 mL/min/kg
same,half-life,[2]; [5],2.05 h
same,AUC(0-inf),[2]; [5],4880 ng·h/mL
same,AUC(0-t),[2]; [5],4570 ng·h/mL
same,Vd,"[2]; male, mouse, plasma, BALB/c mice, intravenous 2 mg/kg, read-out: Vss",1.1 L/kg
same,Cmax,[2]; [6],4160 ng/mL
same,Tmax,[2]; [6],0.25 h
same,half-life,[2]; [6],2.22 h
same,AUC(0-inf),[2]; [6],17200 ng·h/mL
same,AUC(0-t),[2]; [6],17200 ng·h/mL
same,time for brain target engagement levels to return to baseline,[3]; S2B Fig,~ 3 days
same,time to maximum target engagement,"[3]; rat PBMCs and brain, days of administration",5 days
same,time exploring mice introduced in the cage,[4]; 12 month old female,restored the time SAMP8 spent exploring mice
same,preference for the chamber with the novel mice,[4]; female,restored the normal preference
